Measurements published in patent US20060014734A1, “Immediate release pharmaceutical formulation” (priority 2002, published 2006).

Assays:
[1] = Solubility of esylate salt: final concentration of the solution after filtration; format: physicochemical
Description: A solution was prepared by dissolving excess of Compound A as esylate salt in 3 mL water followed by gently stirring over night. A final concentration of the solution after filtration was monitored to 14 mg/ml at a pH of 2.7.
A solution was prepared by dissolving 112 mg of Compound A as esylate salt in 3 mL sodium phosphate buffer followed by gently stirring over night. A final concentration of the solution after filtration was monitored to 33 mg/ml at a pH of 2.7.
A solution was prepared by dissolving 20 mg of Compound A as esylate salt in 3 mL sodium phosphate buffer followed by gently stirring over night. A final concentration of the solution after filtration was monitored to 1.6 mg/ml at a pH of 6.5.

[2] = Storage stability of liquid formulations; format: physicochemical
Description: The pH of this solution was set to 3.8 by addition of HCl. The solubility of Compound A is at least 1000 times higher in this vehicle compared to water alone. Formulations of Compound A in this vehicle are stable for at least 3 months at <−15° C.

pH of the formulation = format: physicochemical
Description: A formulation was prepared by dissolving Compound A in acidified PEG 400/ethanol/water 20/10/70 (w/w) % that was followed by gently stirring. The pH of this solution was 3.6. The solubility of Compound A is at least 250 times higher in this vehicle compared to water alone.
A formulation was prepared by dissolving Compound E in 9 mg/ml NaCl by gently stirring. The pH obtained in this formulation is 8-9.
A formulation was prepared by dissolving Compound F in 9 mg/ml NaCl by gently stirring. The pH obtained in this formulation is 3-4. Formulations of F in this vehicle are stable for at least 2 weeks at room temperature and below.

[3] = Nanoparticle preparation: particle size and its stability; format: physicochemical; conditions: for nanoparticle size: about 100 mM ethanol stock with 25% (w/w) Miglyol, diluted 1/10 in 0.2% PVP and 0.25 mM SDS in water, ultrasonication; for particle sizes after 6 hours at room temperature: nanoparticles after 1/10 dilution in 0.2% PVP and 0.25 mM SDS in water
Description: In order to prepare nanoparticles a stock solution of Compound A of about 100 mM in ethanol was used. Included was also 25% (w/w) Miglyol, calculated on the amount of the substance. The solutions were diluted 1/10 with the stabilizer solution, consisting of 0.2% (w/w) PVP and 0.25 mM SDS in water. The mixing, which is considered as a critical parameter during the nanoparticle preparation, was rapid and instant. The drug solution was rapidly injected into the stabilizer solution during ultrasonication. After the 1/10 dilution in the aqeous solution, nanoparticles of about 150 nm were achieved. After 6 hours at room temperature, the particle sizes were unchanged.
To prepare nanoparticles a stock solution of Compound B of about 100 mM in ethanol was used. Included was also 25% (w/w) Miglyol, calculated on the amount of the substance. The solutions were diluted 1/10 with a stabilizer solution consisting of 0.2% (w/w) PVP and 0.25 mM SDS in water. The critical mixing stage was rapid and instant:—The drug solution was rapidly injected into the stabilizer solution during ultrasonication. After 1/10 dilution in the aqeous solution, nanoparticles of about 110 nm were obtained. After 6 hours at room temperature, the particle sizes were unchanged.

[4] = Solubility in vehicle compared to water alone; format: physicochemical
[5] = Plasma concentration 1 hour after oral or subcutaneous administration of solution to rats
Description: A formulation was prepared by dissolving Compound C in saline/ethanol/solutol 90/5/5 (w/w) % followed by gently stirring.

## CCS(=O)(=O)O.CO/N=C(\N)c1ccc(CNC(=O)C2CCN2C(=O)C(O)c2cc(Cl)cc(OC(F)F)c2)cc1 (centres unmarked) [Compound A as esylate salt]
[1]; pH 2.7, aqueous buffer, thermodynamic from solid, 112 mg in 3 mL sodium phosphate buffer pH 3.1 I = 0.1, stirred over night, at a pH of 2.7
  solubility thermodynamic: 33 mg/mL
[1]; pH 2.7, thermodynamic from solid, excess salt in 3 mL water, stirred over night, at a pH of 2.7
  solubility thermodynamic: 14 mg/mL
[1]; pH 6.5, aqueous buffer, thermodynamic from solid, 20 mg in 3 mL sodium phosphate buffer pH 6.9 I = 0.1, stirred over night, at a pH of 6.5
  solubility thermodynamic: 1.6 mg/mL

## CO/N=C(\N)c1ccc(CNC(=O)[C@@H]2CCN2C(=O)[C@H](O)c2cc(Cl)cc(OC(F)F)c2)cc1 [Compound A, Ph(3-Cl)(5-OCHF2)—(R)CH(OH)C(O)—(S)Aze-Pab(OMe)]
[2]; Example 10: acidified PEG 400/ethanol/water 40/5/55, pH 3.8, at <−15° C.
  time the formulation is stable: at least 3 months
[2]; Example 28: 130 μmol/mL in ethanol
  time the substance is stable in this formulation: more than 1 week
[2]; Example 57: PEG 400/ethanol/water 25/10/65, in a freezer
  time the formulation is stable: at least 2 months
[2]; Example 60: ethanol, citric acid and water, pH 3.2, in a freezer
  time the formulation is stable: at least 1 month
[2]; Example 61: citric acid in physiological saline, pH 3.6, in a freezer
  time the formulation is stable: at least 3 months
[2]; Example 62: PEG 400/ethanol/water 40/5/55 containing citric acid, pH 3.6, in a freezer
  time the formulation is stable: at least 1 month
[2]; Example 67: citric acid in physiological saline, pH 3.6, in a freezer
  time the formulation is stable: at least 3 months
pH of the formulation; Example 6: 51 μmol/mL in PEG 400/ethanol/water 20/10/70, water with 50 μmol/mL tartaric acid
  pH of this solution: 3.6
[3]
  nanoparticle size: about 150 nm
  particle sizes after 6 hours at room temperature: unchanged
[4]; Example 4: PEG 400/ethanol/water 50/5/45 (w/w) %
  solubility in this vehicle compared to water alone: at least 1000 times
[4]; Example 5: PEG 400/ethanol/water 20/10/70 (w/w) %
  solubility in this vehicle compared to water alone: at least 100 times
[4]; Example 6: acidified PEG 400/ethanol/water 20/10/70, water with 50 μmol/mL tartaric acid, pH 3.6
  solubility in this vehicle compared to water alone: at least 250 times
[4]; Example 7: PEG 400/ethanol/water 30/5/65 (w/w) %
  solubility in this vehicle compared to water alone: at least 200 times
[4]; Example 8: acidified PEG 400/ethanol/water 30/5/65, tartaric acid, HCl to pH 3.6
  solubility in this vehicle compared to water alone: at least 400 times
[4]; Example 9: PEG 400/ethanol/water 40/5/55 (w/w) %
  solubility in this vehicle compared to water alone: at least 600 times
[4]; Example 10: acidified PEG 400/ethanol/water 40/5/55, tartaric acid, HCl to pH 3.8
  solubility in this vehicle compared to water alone: at least 1000 times
[4]; Example 11: Hydroxypropyl-β-cyclodextrin/water 40/60 (w/w) %, pH set to 4.7 by HCl
  solubility in this vehicle compared to water alone: at least 700 times
[4]; Example 12: Hydroxypropyl-β-cyclodextrin/water 28/72 (w/w) %
  solubility in this vehicle compared to water alone: at least 400 times
[4]; Example 13: PEG 400/ethanol/solutol/water 50/5/5/40 (w/w) %
  solubility in this vehicle compared to water alone: at least 80 times
[4]; Example 14: PEG 400/water 40/60 (w/w) %
  solubility in this vehicle compared to water alone: at least 200 times
[4]; Example 15: PEG 400/water 35/65 (w/w) %, water with 50 μmol/mL tartaric acid
  solubility in this vehicle compared to water alone: at least 250 times
[4]; Example 16: PEG 400/water 50/50 (w/w) %
  solubility in this vehicle compared to water alone: at least 300 times
[4]; Example 17: PEG 400/water 67/33 (w/w) %
  solubility in this vehicle compared to water alone: at least 400 times
[4]; Example 18: PEG 400/ethanol/water 45/1/54 (w/w) %
  solubility in this vehicle compared to water alone: at least 450 times
[4]; Example 19: acidified PEG 400/ethanol/water 45/1/54, tartaric acid, HCl to pH 4.2
  solubility in this vehicle compared to water alone: at least 800 times
[4]; Example 20: PEG 400/ethanol/water 45/2/53 (w/w) %
  solubility in this vehicle compared to water alone: at least 500 times
[4]; Example 21: acidified PEG 400/ethanol/water 45/2/53, tartaric acid, HCl to pH 4.3
  solubility in this vehicle compared to water alone: at least 800 times
[4]; Example 22: DMA/water 50/50 (w/w) %
  solubility in this vehicle compared to water alone: at least 230 times
[4]; Example 23: DMA/water 25/75 (w/w) %
  solubility in this vehicle compared to water alone: at least 150 times
[4]; Example 24: water with double equimolar HCl, pH adjusted to 3.6
  solubility in this vehicle compared to water alone: at least 20 times
[4]; Example 25: water, HCl to pH 1, then NaOH to pH 3.0
  solubility in this vehicle compared to water alone: at least 40 times
[4]; Example 26: DMA/miglyol (miglyol 0.25 g/g Compound A)
  solubility in this vehicle compared to water alone: at least 4000 times
[4]; Example 27: Ethanol/Miglyol (miglyol 0.25 g/g Compound A)
  solubility in this vehicle compared to water alone: at least 4000 times
[4]; Example 57: PEG 400/ethanol/water 25/10/65 (w/w) %
  solubility in this vehicle compared to water alone: at least 100 times
[4]; Example 58: PEG 400/ethanol/water 50/10/40 (w/w) %
  solubility in this vehicle compared to water alone: at least 2000 times
[4]; Example 59: PEG 400/ethanol/water 40/10/50 (w/w) %
  solubility in this vehicle compared to water alone: at least 1500 times
[4]; Example 60: ethanol, citric acid and water, pH set to 3.2
  solubility in this vehicle compared to water alone: at least 100 times

## CO/N=C(\N)c1cc(F)c(CNC(=O)[C@@H]2CCN2C(=O)[C@H](O)c2cc(Cl)cc(OC(F)F)c2)c(F)c1 [Compound B, Ph(3-Cl)(5-OCHF2)—(R)CH(OH)C(O)—(S)Aze-Pab(2,6-diF)(OMe)]
[2]; Example 69: 0.5 mg/mL in PEG 400/ethanol/water 50/5/45, at <−15° C.
  time the formulation is stable: at least 1 month
[3]
  nanoparticle size: about 110 nm
  particle sizes after 6 hours at room temperature: unchanged

## CO/N=C(\N)c1ccc(CNC(=O)[C@@H]2CCN2C(=O)[C@H](O)c2cc(Cl)cc(OCCF)c2)cc1 [Compound C, Ph(3-Cl)(5-OCH2CH2F)—(R)CH(OH)C(O)—(S)Aze-Pab(OMe)]
[2]; Example 73: 0.5 mg/mL in PEG 400/ethanol/water 50/5/45, at room temperature and below
  time the formulation is stable: at least 1 month
[2]; Example 74: Hydroxypropyl-β-cyclodextrin/water 20/80, at <8° C.
  time the formulation is stable: at least 2 weeks

## N=C(N)c1ccc(CNC(=O)[C@@H]2CCN2C(=O)[C@H](O)c2cc(Cl)cc(OC(F)F)c2)cc1 [Compound D, Ph(3-Cl)(5-OCHF2)—(R)CH(OH)C(O)—(S)Aze-Pab]
[2]; Example 64: acidified PEG 400/ethanol/water 40/5/55, pH 3.6, at <−15° C.
  time the formulation is stable: at least 2 months
[5]; oral, dosed: Compound A 4 μmol/mL in saline/ethanol/solutol 90/5/5
  plasma concentration after 1 hour: 560 nM
[5]; subcutaneous, dosed: Compound A 4 μmol/mL in saline/ethanol/solutol 90/5/5
  plasma concentration after 1 hour: 240 nM
[5]; subcutaneous, dosed: Compound D trifluoroacetate salt 4 μmol/mL in saline/ethanol
  plasma concentration after 1 hour: 550 nM

## N=C(N)c1cc(F)c(CNC(=O)[C@@H]2CCN2C(=O)[C@H](O)c2cc(Cl)cc(OC(F)F)c2)c(F)c1 [Compound E, Ph(3-Cl)(5-OCHF2)—(R)CH(OH)C(O)—(S)Aze-Pab(2,6-diF)]
[5]; oral, dosed: Compound B 4 μmol/mL in saline/ethanol/solutol 90/5/5
  plasma concentration after 1 hour: 650 nM
[5]; subcutaneous, dosed: Compound B 4 μmol/mL in saline/ethanol/solutol 90/5/5
  plasma concentration after 1 hour: 300 nM
[5]; subcutaneous, dosed: Compound E acetate salt 4 μmol/mL in saline/ethanol
  plasma concentration after 1 hour: 750 nM
pH of the formulation; Example 72: dissolved in 9 mg/ml NaCl
  pH obtained in this formulation: 8-9

## N=C(N)c1ccc(CNC(=O)[C@@H]2CCN2C(=O)[C@H](O)c2cc(Cl)cc(OCCF)c2)cc1 [Compound F, Ph(3-Cl)(5-OCH2CH2F)—(R)CH(OH)C(O)—(S)Aze-Pab]
[2]; Example 75: 9 mg/ml NaCl, at room temperature and below
  time the formulation is stable: at least 2 weeks
[5]; oral, dosed: Compound C 4 μmol/mL in saline/ethanol/solutol 90/5/5
  plasma concentration after 1 hour: 500 nM
[5]; subcutaneous, dosed: Compound C 4 μmol/mL in saline/ethanol/solutol 90/5/5
  plasma concentration after 1 hour: 500 nM
[5]; subcutaneous, dosed: Compound F trifluoroacetate salt 4 μmol/mL in saline/ethanol
  plasma concentration after 1 hour: 920 nM
pH of the formulation; Example 75: dissolved in 9 mg/ml NaCl
  pH obtained in this formulation: 3-4
